Where two headings read alike, the source gives them in different places.
Experiments:
[1] = human pharmacokinetics of oral indoximod; type: in vivo; conditions: plasma
[2] = indoximod plasma exposure in murine antitumor experiments; type: in vivo; conditions: mice; for exposure: ~500 mg/kg/day or oral 200 mg/kg bid
[3] = hygroscopicity and stability of indoximod and its salts; type: physicochemical
[4] = solubility of indoximod and its salts in water, buffers and SGF; type: physicochemical
[5] = in-vitro dissolution test of SDD formulations in simulated gastric buffer (GB) and simulated intestinal fluid (SIF); type: physicochemical
Procedure: In this study, SDD formulations were made by two methods: hot process spray dry—formulation solution heated up to 110° C. before spraying dry, and basic spray dry—formulation pH raised up to ˜11.5 (room temperature) before spraying dry. The performance of each SDD formulation was investigated by in-vitro dissolution test in simulated gastric buffer (GB) and simulated intestinal fluid (SIF). […] In addition, higher drug load in the powder was preferred since it could decrease the dose amount of the final formulation. Based on all these criteria, two SDD formulations were selected for further in vivo PK studies in monkeys.

[6] = crossover pharmacokinetic study of indoximod free base, salts and SDD in cynomolgus monkeys; type: in vivo; conditions: male, cynomolgus monkey, plasma, po; for AUC(0-t): oral, read-out: AUC(0 −> 48 h)
Procedure: The SDD suspension formulations were prepared in 0.5% methylcellulose (Methocel).

[7] = pharmacokinetic testing of indoximod salts in capsule formulation in rats; type: in vivo; conditions: rat, plasma, po, capsules
Procedure: Three dose levels were investigated: 37, 185 or 500 μmol/kg.
Capsules were manually filled and the composition uniformity of a representative sample of capsules from each batch was verified by weight and by LC-MS/MS to determine the average indoximod content.
(§1) Rats were fasted 16 h prior to dosing to eliminate any confounding food effects, and food was returned 2 h after dosing.

[8] = pharmacokinetic testing of indoximod prodrug salts in solid capsule formulation in rats; type: in vivo; conditions: for % Change Cmax / % Change in AUC: vs indoximod free base
Procedure: These blends were formulated so that each capsule contained the same molar dose of each prodrug. […] The composition and uniformity of a representative sample of capsules from each batch was verified by weight and by LC-MS/MS to determine the average indoximod or prodrug content.
as §1

[9] = system: ectopic melanoma, colon and lung tumors, breast tumor models; conditions: cited from earlier work
[10] = pharmacokinetic testing of indoximod prodrugs in liquid formulation in mice; conditions: for AUC(0-inf) / Cmax / Tmax / half-life: mouse, plasma, po; for % Change in Norm. Cmax / % Increase in Norm AUC: vs indoximod, Mouse, PO solution, salt form FB
Procedure: Blood samples (0.1-0.2 mL) were collected from the femoral artery port from rats or by retro-orbital bleeding from mice and plasma was immediately collected by centrifugation and stored on dry ice to avoid prodrug hydrolysis after plasma collection. […] The pharmacokinetic parameters reflect the average of individual parameter values obtained from each individual rat (n) or one common parameter from a single pharmacokinetic curve derived from blood samples obtained from a group of mice (n).

[11] = pharmacokinetic testing of indoximod prodrug salts in solid capsule formulation in cynomolgous monkeys
[12] = Table 10.1, rats, oral capsules, dose 37 μmol/kg, salt form free base
[13] = Table 10.1, rats, oral capsules, dose 185 μmol/kg, salt form free base
[14] = Table 10.1, rats, oral capsules, dose 500 μmol/kg, salt form free base
[15] = Table 10.2, indoximod, rats, oral capsules, dose 37 μmol/kg, salt form free base
[16] = Table 10.2, indoximod, rats, oral capsules, dose 185 μmol/kg, salt form free base
[17] = Table 10.2, indoximod, rats, oral capsules, dose 500 μmol/kg, salt form free base
[18] = Table 10.2, rats, oral capsules, dose 37 μmol/kg, salt form free base
[19] = Table 10.2, rats, oral capsules, dose 185 μmol/kg, salt form free base
[20] = Table 10.2, rats, oral capsules, dose 500 μmol/kg, salt form free base
[21] = indoximod, cynomolgous monkeys, oral capsules, dose 275 μmol/kg, salt form free base

Tmax [1]: ~3 h | half-life [1]: ~10 h | AUC(0-t) ([1]; patients, up to 800 mg/dose, read-out: drug exposure (AUC(0-last))): ~100 µM·h | Cmax ([1]; po, 800 mg/dose, patients, about 800 mg/dose, read-out: maximum plasma concentration (Cmax)): 15 µM | AUC(0-inf) ([1]; ~800 mg/dose): 100 µM·h | exposure [2]: greater than 300 μM.h | exposure ([2]; listed as Indoximod): > 300 µM·h | Cmax ([2]; mouse, plasma, drinking water 3 mg/mL (~500 mg/kg/day) or oral 200 mg/kg bid): > 20 µM | hygroscopicity (weight gain) ([3]; 0-80%RH): 0.09% | stability in solution ([3]; 0.1 N HCl and 50 mM phosphate buffers pH 2-8, 25° C., 24 hours): stable | chemical stability of the solid powder form ([3]; 25° C/60%RH, 40° C., 40° C/75%RH, 60° C. and 70° C. for 4 weeks): chemically stable | Hygroscopicity (0-80% RH) ([3]; Table 2, listed as Free base, in % (unit assumed)): 0.09 | pH of the SGF solution (in brackets) ([4]; 25° C., SGF solubility test, listed as Free base): 2.32 | Solubility (25° C., mg/mL) SGF ([4]; 25° C., SGF, listed as Free base): 3.6 mg/mL | pH of the water solution (in brackets) ([4]; 25° C., water solubility test, listed as Free base): 6.03 | Solubility (25° C., mg/mL) Water ([4]; 25° C., water, listed as Free base): 1.8 mg/mL | solubility ([4]; aqueous solutions, buffered or un-buffered, pH 2, aqueous buffer, pH 2-8): 1800 to 2000 µg/mL | UltraC90 ([5]; SIF, 90 min, after ultracentrifugation): 1,849 μg/mL | UltraC1200 ([5]; SIF, 1200 min, after ultracentrifugation): 1,854 μg/mL | CmaxGB ([5]; maximum indoximod concentration, dissolved in GB for 30 min): 5,154 μg/mL | Cmax90 ([5]; maximum indoximod concentration, dissolved in SIF for 90 min): 2,213 μg/mL | Cmax ([6]; 275 umol/kg): 12.9 ± 3.3 µM | AUC(0-t) ([6]; 275 umol/kg, 275 μmol/kg): 66 ± 17 µM·h | Cmax ([6]; 825 umol/kg): 25.6 ± 12.8 µM | AUC(0-t) ([6]; 825 umol/kg, 825 μmol/kg): 127 ± 73 µM·h | AUC(0-inf) ([7]; 37 umol/kg): 390 ± 166 µM·h | AUC(0-inf) ([7]; 185 umol/kg): 1080 ± 478 µM·h | Cmax ([7]; 185 umol/kg): 20.8 ± 4 µM | AUC(0-inf) ([7]; 500 umol/kg): 2870 ± 1380 µM·h | % Change Cmax [8, 12]: 0% | % Change in AUC [8, 12]: 0% | % Change Cmax [8, 13]: 0% | % Change in AUC [8, 13]: 0% | % Change Cmax [8, 14]: 0% | % Change in AUC [8, 14]: 0% | AUC(0->∞) [8, 15]: 390 ± 166 µM·h | Cmax [8, 15]: 15.9 ± 8 µM | AUC(0->∞) [8, 16]: 1080 ± 478 µM·h | Cmax [8, 16]: 20.8 ± 4 µM | AUC(0->∞) [8, 17]: 2871 ± 1379 µM·h | Cmax [8, 17]: 76.2 ± 25 µM | % Change Cmax [8, 18]: 0% | % Change in AUC [8, 18]: 0% | % Change Cmax [8, 19]: 0% | % Change in AUC [8, 19]: 0% | % Change Cmax [8, 20]: 0% | % Change in AUC [8, 20]: 0% | Cmax ([8]; Table 10.3, indoximod, rats, oral capsules, dose 37 μmol/kg, salt form free base): 15.9 ± 8 µM | Cmax ([8]; Table 10.3, indoximod, rats, oral capsules, dose 185 μmol/kg, salt form free base): 20.8 ± 4 µM | Cmax ([8]; Table 10.3, indoximod, rats, oral capsules, dose 500 μmol/kg, salt form free base): 76.2 ± 25 µM | AUC(0-inf) ([8]; rat, plasma, po, 37 umol/kg): 390 ± 166 µM·h | Cmax ([8]; rat, plasma, po, 37 umol/kg): 15.9 ± 8 µM | AUC(0-inf) ([8]; rat, plasma, po, 185 umol/kg): 1080 ± 478 µM·h | Cmax ([8]; rat, plasma, po, 185 umol/kg): 20.8 ± 4 µM | AUC(0-inf) ([8]; rat, plasma, po, 500 umol/kg): 2870 ± 1380 µM·h | Cmax ([8]; rat, plasma, po, 500 umol/kg): 76.2 ± 25 µM | AUC(0-inf) ([10]; 10 mg/kg): 34 µM·h | Cmax ([10]; 10 mg/kg): 9 µM | Tmax ([10]; 10 mg/kg): 0.5 h | half-life ([10]; 10 mg/kg): 1.8 h | AUC(0-inf) ([10]; 100 mg/kg): 325 µM·h | Cmax ([10]; 100 mg/kg): 43 µM | Tmax ([10]; 100 mg/kg): 1 h | half-life ([10]; 100 mg/kg): 3.5 h | % Change in Norm. Cmax ([10]; dose 10 mg/kg): 0% | % Increase in Norm AUC ([10]; dose 10 mg/kg): 0% | % Change in Norm. Cmax ([10]; dose 100 mg/kg): 0% | % Increase in Norm AUC ([10]; dose 100 mg/kg): 0% | AUC(0->∞) ([11]; indoximod, cynomolgous monkeys, oral capsules, dose 92 μmol/kg, salt form free base): 38.5 ± 4 µM·h | AUC(0->∞) [11, 21]: 74.9 ± 5 µM·h | Cmax [11, 21]: 17.5 ± 3 µM | Cmax ([11]; monkey, blood, po, 92 umol/kg): 8.2 ± 0.4 µM | AUC(0-inf) ([11]; monkey, blood, po, 875 umol/kg): 165 ± 52 µM·h | Cmax ([11]; monkey, blood, po, 875 umol/kg): 27.8 ± 8 µM
SMILES: Cn1cc(C[C@@H](N)C(=O)O)c2ccccc21 [indoximod, 1-methyl-D-tryptophan, reference compound]
antitumor effect ([9]; in combination with chemotherapy): demonstrates antitumor effects | antitumor effect ([9]; melanoma models, combination with anti-CTLA4 (ipilimumab)): synergistic antitumor effect
